# Like-named read-outs stand apart in the source and are kept apart here.
# Experiments:
# Assay type in all cases: cell-based
# Ikaros = Ikaros (Homo sapiens, UniProt Q13422+Q96SW2); assay: ePL-tagged substrate degradation kinetics in DF15 cells (enantiomer comparison); parameters: expressed in transfected cells; host or cells: DF15 cells; Ikaros Y-constant: scale not given here; details: for DC50: read-out: Ikaros EC50
# Procedure: In a second assay, DF15 cell lines expressing ePL-tagged target protein substrates were used as a model system to monitor protein degradation at 0.75, 1, 1.5, 3, 4, and 24 hours over a concentration range from 1 pM to 10 μM. The proteins evaluated were Ikaros (FIG. 17), Aiolos, and ZFP91. Compound 1 and Compound 2 were both able to degrade the substrate proteins at all time points (Table 9). In a further assay, additional time points were included to monitor the effect of treatment with Compound 1 and Compound 2.
# The depth of substrate protein degradation described by the Y-constant was also measured in this assay against a negative control luciferase inhibitor (CC1071297, Y-constant=0).
# SU-DHL-2 cells = assay: Western blot of substrate degradation by each enantiomer, short time-course; details: SU-DHL-2, within 2 hours at 1 nM
# Procedure: Pure samples of each enantiomer were tested for cellular degradation of substrate proteins measured over a short time-course (FIG. 16). SU-DHL-2 cells were treated for 1, 2, and 6 hours with vehicle control (0.1% DMSO), Compound 1 (1, 10, 100 nM), or Compound 2 (1, 10, 100 nM). Western blot analysis was used to evaluate the extent of degradation of the protein substrates Aiolos, Ikaros, and ZFP91. Compound 1 inhibited Aiolos, Ikaros, and ZFP91 in as early as 1 hour of treatment with as little as 1 nM.
# SU-DHL-4 = assay: CellTiter-Glo (CTG) antiproliferative assay, 5-day; details: Homo sapiens, 120 h; SU-DHL-4, 5-day assay, n = 6
# Procedure: To evaluate the activity of both Compound 1 and Compound 2 in DLBCL cells, a CellTiter-Glo (CTG) assay was performed to measure the antiproliferative activity.
# [1] = tested on: KARPAS-422-Cas9 and SU-DHL-4-Cas9 knock-out cells; assay: Flow cytometry-based cellular competition assay in substrate knock-out cells; details: 0.1, 1, 10 nM
# Description: Compound 1 induces autonomous cell killing activity in DLBCL cells in a cereblon-dependent manner. To investigate the consequence of loss of a single cereblon substrate, CRISPR/Cas9-mediated knockout of a cereblon substrate coupled with a flow cytometry-based cellular competition assay was utilized to assess relative cell fitness upon gene knock-out in six DLBCL cell lines: KARPAS-422, U-2932, RIVA, SU-DHL-16, HT, and SU-DHL-4 (FIG. 7, Panel A). To perform the flow cytometry-based competition assay, stable Cas9-expressing DLBCL cells were transduced with a control non-targeting sgRNA construct containing a GFP reporter (sgNT-1-GFP), or with a sgRNA construct targeting a gene of interest containing an RFP reporter (sgRNA-RFP). For targeted knock-out of each gene, two sgRNA sequences were used to knock-out Ikaros (sgIKZF1-1, sgIKZF1-2), Aiolos (sgIKZF3-1, sgIKZF3-2), and ZFP91 (sgZFP91-1, sgZFP91-3). For controls, two non-targeting sgRNAs (sgNT-1, sgNT-2), a sgRNA targeting a non-coding region of the genome (sgNC-1), and a sgRNA targeting an established essential gene ETF1 (sgETF1-1) were included. Following transduction with sgRNAs, cells were washed and mixed at a 1:1 ratio and the percentage of GFP^+ and RFP^+ cells was measured every three days for eighteen days (FIG. 7, panel B). […]
# Chain of Ikaros (Q13422 whole entry): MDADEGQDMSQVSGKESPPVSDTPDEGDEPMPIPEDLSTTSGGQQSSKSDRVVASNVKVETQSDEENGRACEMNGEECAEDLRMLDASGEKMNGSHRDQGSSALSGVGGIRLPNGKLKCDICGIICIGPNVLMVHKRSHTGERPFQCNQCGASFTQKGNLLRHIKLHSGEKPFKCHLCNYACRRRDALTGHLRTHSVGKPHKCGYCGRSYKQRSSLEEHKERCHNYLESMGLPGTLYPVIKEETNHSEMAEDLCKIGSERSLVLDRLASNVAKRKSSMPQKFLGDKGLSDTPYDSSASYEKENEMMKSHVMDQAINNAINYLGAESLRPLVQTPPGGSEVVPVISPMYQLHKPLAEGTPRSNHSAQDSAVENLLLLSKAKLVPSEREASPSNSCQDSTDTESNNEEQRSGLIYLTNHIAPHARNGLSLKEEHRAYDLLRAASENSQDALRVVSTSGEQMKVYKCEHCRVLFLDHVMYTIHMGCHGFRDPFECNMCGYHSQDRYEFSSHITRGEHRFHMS
# Chain of Ikaros (Q96SW2 whole entry): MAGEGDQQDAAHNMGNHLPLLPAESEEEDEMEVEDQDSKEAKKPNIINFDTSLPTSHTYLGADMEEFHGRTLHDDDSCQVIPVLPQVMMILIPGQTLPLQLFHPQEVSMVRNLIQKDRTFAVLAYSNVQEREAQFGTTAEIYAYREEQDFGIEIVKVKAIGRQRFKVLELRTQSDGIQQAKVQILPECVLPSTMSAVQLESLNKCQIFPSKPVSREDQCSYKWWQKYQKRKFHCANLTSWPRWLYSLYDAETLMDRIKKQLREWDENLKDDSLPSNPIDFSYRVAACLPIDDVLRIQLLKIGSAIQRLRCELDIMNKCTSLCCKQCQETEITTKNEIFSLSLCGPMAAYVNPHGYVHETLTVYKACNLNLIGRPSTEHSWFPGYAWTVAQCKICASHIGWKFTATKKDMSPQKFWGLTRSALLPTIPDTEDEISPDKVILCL
# Chain of Ikaros (Q16531 whole entry partner): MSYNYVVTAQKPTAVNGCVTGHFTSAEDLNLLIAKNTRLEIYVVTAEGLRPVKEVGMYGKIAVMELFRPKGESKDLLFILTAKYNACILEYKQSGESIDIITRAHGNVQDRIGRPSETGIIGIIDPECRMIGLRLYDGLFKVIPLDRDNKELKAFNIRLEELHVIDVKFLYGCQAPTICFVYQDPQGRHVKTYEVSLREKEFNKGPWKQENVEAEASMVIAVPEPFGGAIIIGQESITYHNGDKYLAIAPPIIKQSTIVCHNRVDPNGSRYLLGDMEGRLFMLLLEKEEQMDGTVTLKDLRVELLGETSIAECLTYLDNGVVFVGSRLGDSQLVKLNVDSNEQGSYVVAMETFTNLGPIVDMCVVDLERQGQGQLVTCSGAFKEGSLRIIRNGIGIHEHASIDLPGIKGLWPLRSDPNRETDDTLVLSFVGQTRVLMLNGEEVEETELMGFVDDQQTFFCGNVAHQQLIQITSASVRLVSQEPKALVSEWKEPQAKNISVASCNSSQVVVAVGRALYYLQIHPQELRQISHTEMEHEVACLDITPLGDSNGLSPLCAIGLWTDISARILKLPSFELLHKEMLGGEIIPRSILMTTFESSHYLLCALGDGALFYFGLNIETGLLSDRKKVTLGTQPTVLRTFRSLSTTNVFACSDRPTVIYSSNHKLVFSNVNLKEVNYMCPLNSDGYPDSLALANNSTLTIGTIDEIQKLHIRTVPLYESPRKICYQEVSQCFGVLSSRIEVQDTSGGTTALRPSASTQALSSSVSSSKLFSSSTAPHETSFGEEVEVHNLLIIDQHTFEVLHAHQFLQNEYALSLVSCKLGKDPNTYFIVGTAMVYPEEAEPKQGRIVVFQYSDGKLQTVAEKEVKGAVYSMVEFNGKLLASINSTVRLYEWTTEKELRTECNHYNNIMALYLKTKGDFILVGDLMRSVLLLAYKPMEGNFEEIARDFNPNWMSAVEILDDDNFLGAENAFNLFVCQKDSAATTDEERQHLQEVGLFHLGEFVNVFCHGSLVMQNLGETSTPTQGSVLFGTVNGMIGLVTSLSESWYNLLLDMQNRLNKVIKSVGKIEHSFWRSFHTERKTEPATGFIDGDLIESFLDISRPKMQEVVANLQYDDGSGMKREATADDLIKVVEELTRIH
compound,measurement,setting,value
"O=C1CC[C@H](N2C(=O)c3cccc(NCc4ccc(CN5CC(N6CCOCC6)C5)cc4F)c3C2=O)C(=O)N1 [Compound 1, (S)-2-(2,6-dioxopiperidin-3-yl)-4-((2-fluoro-4-((3-morpholinoazetidin-1-yl)methyl)benzyl)amino)isoindoline-1,3-dione]",Ikaros Y-constant,Ikaros; 0.75 hours,39.3
same,DC50,Ikaros; 0.75 hours,1.25 nM
same,Ikaros Y-constant,Ikaros; 1 hour,27.5
same,DC50,Ikaros; 1 hour,1.01 nM
same,Ikaros Y-constant,Ikaros; 1.5 hours,12.5
same,DC50,Ikaros; 1.5 hours,0.96 nM
same,Ikaros Y-constant,Ikaros; 3 hours,8.6
same,DC50,Ikaros; 3 hours,0.81 nM
same,Ikaros Y-constant,Ikaros; 4 hours,6.8
same,DC50,Ikaros; 4 hours,0.99 nM
same,Ikaros Y-constant,Ikaros; 24 hours,2.6
same,DC50,Ikaros; 24 hours,0.35 nM
same,"degradation of each of Aiolos, Ikaros, and ZFP91",SU-DHL-2 cells,More than 50%
same,IC50,SU-DHL-4,22 nM
same,RFP+/GFP+ ratio relative to DMSO-treated control cells,[1]; sgIKZF1 and sgIKZF3 knock-out cells,dose-dependent decrease
same,dose-dependent decrease in RFP+/GFP+ ratio,[1]; sgZFP91 cells,not observed

# Reference: patent US20210116454A1, “METHODS FOR TREATING A HEMATOLOGICAL CANCER AND THE USE OF COMPANION BIOMARKERS FOR 2-(2,6-DIOXOPIPERIDIN-3-YL)-4-((2-FLUORO-4-((3-MORPHOLINOAZETIDIN-1-YL)METHYL)BENZYL)AMINO)ISOINDOLINE-1,3-DIONE” (CELGENE CORPORATION, priority 2019, published 2021)
